Measurements as given in the supplement of paper PMC12137928.
Counter-ions that a name gives are not always drawn.

Test system: HCT116
Settings: 72 h
In short: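 IC50 and maximal efficacy were derived from four-parameter Hill curve fits. The underlying CellTiter-Glo luminescence was scaled so that vehicle equals 0% and positive control equals -100%, and was then pattern-corrected. HCT116 cells had been seeded in 1536-well plates at 250 per well.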

| Structure (SMILES) | IC50 cell viability (ICRF193 0 nM) | IC50 cell viability (ICRF193 200 nM) |
| --- | --- | --- |
| CS(=O)(=O)OCCCCOS(C)(=O)=O [Busulfan] | > 45.8 µM | > 45.8 µM |
| CCCCN(CCCC)CCCOC(=O)c1ccc(N)cc1 [Butacaine] | > 45.8 µM | > 45.8 µM |
| CC(C)C(=O)Nc1cccc(C2CN3CCSC3=N2)c1 (stereo unspecified) [Butamisole] | > 45.8 µM | > 45.8 µM |
| O=C(O)CCC(=O)O [Butanedioic acid] | > 45.8 µM | > 45.8 µM |
| CN(Cc1ccc(C(C)(C)C)cc1)Cc1cccc2ccccc12 [Butenafine] | > 45.8 µM | > 45.8 µM |
| CCCCC(CC)CNC(=O)CC(C)OC(=O)CCC(=O)O (stereo unspecified) [Butoctamide semisuccinate] | > 45.8 µM | > 45.8 µM |
| CCCC(=O)OC(C(Cl)(Cl)Cl)P(=O)(OC)OC (stereo unspecified) [Butonate] | > 45.8 µM | > 45.8 µM |
| CCCCOc1ccc(C[N+]2(C)[C@@H]3CC[C@H]2C[C@H](OC(=O)C(CO)c2ccccc2)C3)cc1 (stereo partly specified) [Butropium Bromide] | > 45.8 µM | > 45.8 µM |
| CCCCOC(=O)c1ccc(N)cc1 [Butyl 4-aminobenzoate] | > 45.8 µM | > 45.8 µM |
| CCCCOC(=O)c1ccc(O)cc1 [Butylparaben] | > 45.8 µM | > 45.8 µM |
| CCCC[N+]1(C)[C@@H]2C[C@@H](OC(=O)[C@H](CO)c3ccccc3)C[C@H]1[C@@H]1O[C@@H]12 (stereo partly specified) [Butylscopolamine bromide] | > 45.8 µM | > 45.8 µM |
| Cc1ccccc1/N=N/c1ccc(/N=N/c2c(O)ccc3ccccc23)c(C)c1 [C.I. Solvent Red 24] | > 45.8 µM | > 45.8 µM |
| O=C([O-])C(O)[C@H](O)[C@@H](O)[C@H](O)[C@H](O)CO.O=C([O-])C(O)[C@H](O)[C@@H](O)[C@H](O)[C@H](O)CO.[Ca+2] (stereo partly specified) [CALCIUM GLUCEPTATE] | > 45.8 µM | > 45.8 µM |
| CO[C@@]1(NC(=O)C2SC(=C(C(N)=O)C(=O)O)S2)C(=O)N2C(C(=O)O)=C(CSc3nnnn3C)CS[C@@H]21 (stereo partly specified) [CEFOTETAN] | > 45.8 µM | > 45.8 µM |
| Cc1oc(=O)oc1COC(=O)N1CC[C@@H](N2CC/C(=C\C3=C(C(=O)O)N4C(=O)[C@@H](NC(=O)/C(=N/O)c5nsc(N)n5)[C@H]4SC3)C2=O)C1 [CEFTOBIPROLE MEDOCARIL SODIUM] | > 45.8 µM | > 45.8 µM |
| O=C(O)COCCN1CCN(C(c2ccccc2)c2ccc(Cl)cc2)CC1 (stereo unspecified) [CETIRIZINE HYDROCHLORIDE] | > 45.8 µM | > 45.8 µM |
| C=C[C@H]1CN2CC[C@H]1C[C@H]2[C@H](O)c1ccnc2ccccc12 [CINCHONIDINE] | > 45.8 µM | > 45.8 µM |
| O=C(O)/C=C/c1ccccc1 [CINNAMIC ACID] | > 45.8 µM | > 45.8 µM |
| C=CCN1C[C@H](C(=O)N(CCCN(C)C)C(=O)NCC)C[C@@H]2c3cccc4[nH]cc(c34)C[C@H]21 [Cabergoline] | > 45.8 µM | > 45.8 µM |
| CCOC(=O)NNc1ccc(N(CC)CC(C)O)nn1 (stereo unspecified) [Cadralazine] | > 45.8 µM | > 45.8 µM |
| Cn1c(=O)c2c(ncn2C)n(C)c1=O [Caffeine] | > 45.8 µM | > 45.8 µM |
| C=C1/C(=C\C=C2/CCC[C@]3(C)[C@@H]([C@H](C)CCCC(C)(C)O)CC[C@@H]23)C[C@@H](O)C[C@@H]1O [Calcitriol] | > 45.8 µM | > 45.8 µM |
| CC(C)(CO)[C@@H](O)C(=O)NCCCC(=O)O [Calcium hopantenate] | > 45.8 µM | > 45.8 µM |
| CC(=O)CCC(=O)O [Calcium levulinate] | > 45.8 µM | > 45.8 µM |
| C=CCCCCCCCCC(=O)[O-].C=CCCCCCCCCC(=O)[O-].[Ca+2] [Calcium undecylenate] | > 45.8 µM | > 45.8 µM |
| CN(C)C(=O)COC(=O)Cc1ccc(OC(=O)c2ccc(NC(=N)N)cc2)cc1 [Camostat] | > 45.8 µM | > 45.8 µM |
| CCN(CC)CCNC(C(=O)OCCC(C)C)c1ccccc1 (stereo unspecified) [Camylofin] | > 45.8 µM | > 45.8 µM |
| Cc1ccc([C@@H]2O[C@H](CO)[C@@H](O)[C@H](O)[C@H]2O)cc1Cc1ccc(-c2ccc(F)cc2)s1 [Canagliflozin] | > 45.8 µM | > 45.8 µM |
| C[C@@H]1NC(=O)[C@@H](N)CNC(=O)[C@H]([C@H]2CCNC(N)=N2)NC(=O)/C(=C/NC(N)=O)NC(=O)[C@H](CNC(=O)C[C@@H](N)CCCN)NC1=O [Capreomycin IB] | > 45.8 µM | > 45.8 µM |

Next, values leading:

| IC50 cell viability (ICRF193 0 nM) | IC50 cell viability (ICRF193 200 nM) | Structure (SMILES) |
| --- | --- | --- |
| > 45.8 µM | > 45.8 µM | COC(=S)NCCn1c([N+](=O)[O-])cnc1C [CARNIDAZOLE] |
| > 45.8 µM | > 45.8 µM | N[C@@H](C(=O)N[C@@H]1C(=O)N2C(C(=O)O)=C(Cl)CS[C@H]12)c1ccccc1 [CEFACLOR] |
| > 45.8 µM | > 45.8 µM | Cn1nnnc1SCC1=C(C(=O)O)N2C(=O)[C@@H](NC(=O)[C@H](O)c3ccccc3)[C@H]2SC1 [CEFAMANDOLE SODIUM] |
| > 45.8 µM | > 45.8 µM | CO/N=C(\C(=O)N[C@@H]1C(=O)N2C(C(=O)O)=C(C[N+]3(C)CCCC3)CS[C@H]12)c1csc(N)n1 [CEFEPIME HYDROCHLORIDE] |
| > 45.8 µM | > 45.8 µM | CO/N=C(\C(=O)N[C@@H]1C(=O)N2C(C(=O)O)=C(CSc3nnnn3C)CS[C@H]12)c1csc(N)n1 [CEFMENOXIME HYDROCHLORIDE] |
| > 45.8 µM | > 45.8 µM | COCC1=C(C(=O)OC(C)OC(=O)OC(C)C)N2C(=O)[C@@H](NC(=O)/C(=N\OC)c3csc(N)n3)[C@H]2SC1 (stereo partly specified) [CEFPODOXIME PROXETIL] |
| > 45.8 µM | > 45.8 µM | COCC1=C(C(=O)O)N2C(=O)[C@@H](NC(=O)/C(=N\OC)c3csc(N)n3)[C@H]2SC1 [CEFPODOXIME] |
| > 45.8 µM | > 45.8 µM | Nc1nc(/C(=C/CC(=O)O)C(=O)N[C@@H]2C(=O)N3C(C(=O)O)=CCS[C@H]23)cs1 [CEFTIBUTEN] |
| > 45.8 µM | > 45.8 µM | CO/N=C(\C(=O)N[C@@H]1C(=O)N2C(C(=O)O)=C(CSC(=O)c3ccco3)CS[C@H]12)c1csc(N)n1 [CEFTIOFUR HYDROCHLORIDE] |
| > 45.8 µM | > 45.8 µM | CC1=C(C(=O)O)N2C(=O)[C@@H](NC(=O)[C@H](N)C3=CCC=CC3)[C@H]2SC1 [CEPHRADINE] |
| > 45.8 µM | > 45.8 µM | C[N+](C)(C)CCOP(=O)(O)OP(=O)([O-])OC[C@H]1O[C@@H](n2ccc(N)nc2=O)[C@H](O)[C@@H]1O [CITICOLINE] |
| > 45.8 µM | > 45.8 µM | O=C([O-])[C@H]1/C(=C/CO)O[C@@H]2CC(=O)N21.[Li+] [CLAVULANATE LITHIUM] |
| > 45.8 µM | > 45.8 µM | Nc1ccn([C@@H]2O[C@H](CO)[C@@H](O)[C@H]2O)c(=O)n1 [CYTIDINE] |
| > 45.8 µM | > 45.8 µM | CCCCCOC(=O)Nc1nc(=O)n([C@@H]2O[C@H](C)[C@@H](O)[C@H]2O)cc1F [Capecitabine] |
